Holding throughout (assay type): biochemical
In test [1] the target is T1, CFA synthase (Escherichia coli, UniProt P0A9H7).
T1 construct: construct only in supplement
Description: turnover, LC-MS/MS and […]-NMR. To be noted: fluoromethyl donor; co-substrate dOPG.

The target of test [2] is T2, TPMT (Homo sapiens, UniProt P51580).
T2 construct: construct only in supplement
T2 sequence (P51580 1-245): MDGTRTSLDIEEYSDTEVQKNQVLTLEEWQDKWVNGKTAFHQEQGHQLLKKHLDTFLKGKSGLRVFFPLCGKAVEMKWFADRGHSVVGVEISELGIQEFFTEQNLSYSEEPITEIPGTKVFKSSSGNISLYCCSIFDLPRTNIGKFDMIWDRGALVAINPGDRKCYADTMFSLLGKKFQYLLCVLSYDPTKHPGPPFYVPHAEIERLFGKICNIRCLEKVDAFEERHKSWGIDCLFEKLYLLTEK
The test is described as follows: fluoromethyl transfer kinetics. To be noted: fluoromethyl donor; thiol co-substrate as in Table 1.

Test [3] has as its target T2, TPMT. The test is described as follows: methyl transfer kinetics. To be noted: methyl donor; thiol co-substrate as in Table 1.

T1 sequence (P0A9H7 2-382): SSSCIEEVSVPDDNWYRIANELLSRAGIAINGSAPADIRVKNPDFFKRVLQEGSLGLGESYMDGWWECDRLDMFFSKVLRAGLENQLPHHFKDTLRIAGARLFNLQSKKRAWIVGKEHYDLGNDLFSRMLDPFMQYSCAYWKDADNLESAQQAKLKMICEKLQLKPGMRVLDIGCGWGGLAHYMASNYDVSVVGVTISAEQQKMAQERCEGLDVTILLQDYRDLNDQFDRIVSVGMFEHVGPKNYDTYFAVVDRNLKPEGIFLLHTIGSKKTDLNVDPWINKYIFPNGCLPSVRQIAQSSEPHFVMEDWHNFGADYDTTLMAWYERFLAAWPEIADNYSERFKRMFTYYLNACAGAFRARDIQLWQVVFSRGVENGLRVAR

Turning to `Nc1ncnc2c1ncn2[C@@H]1O[C@H](C[Te+](CF)CC[C@H](N)C(=O)O)[C@@H](O)[C@H]1O` [FMeTeSAM], in test [1], the “turnover, LC-MS/MS and 19F-NMR” value is listed as “E. coli CFA synthase can use FMeTeSAM to catalyze cyclopropanation”. For the same compound, in test [2], the Km entry is reported as “the Km for FMeTeSAM is nearly the same as that for SAM”.
On to `C[S+](CC[C@H](N)C(=O)O)C[C@H]1O[C@@H](n2cnc3c(N)ncnc32)[C@H](O)[C@@H]1O` (stereo partly drawn) [SAM], for which, in test [3], the Km entry is “the Km for FMeTeSAM is nearly the same as that for SAM”.

For the origin of these results see PMC10214534, “Enzymatic Fluoromethylation Enabled by the S-Adenosylmethionine Analog Te-Adenosyl-L-(fluoromethyl)homotellurocysteine” (ACS Central Science, 2023).
